Results on three compounds are retold here after patent publication US5646141A, “Compounds useful as antiproliferative agents and GARFT inhibitors” (Agouron Pharmaceuticals, Inc., priority 1995, dated 1997).

Assay [1] concerns reduced folate transport system and the mFBP. Particulars: CCRF-CEM and MA104 cell lines for DDATHF (Pizzorno et al.); cited from earlier work.
Assay [2] deals with T1, catalytic domain of the human GARFT (Homo sapiens, UniProt P22102).
T1 construct: catalytic domain of the human GARFT
T1 sequence (P22102 810-1010 limits assumed): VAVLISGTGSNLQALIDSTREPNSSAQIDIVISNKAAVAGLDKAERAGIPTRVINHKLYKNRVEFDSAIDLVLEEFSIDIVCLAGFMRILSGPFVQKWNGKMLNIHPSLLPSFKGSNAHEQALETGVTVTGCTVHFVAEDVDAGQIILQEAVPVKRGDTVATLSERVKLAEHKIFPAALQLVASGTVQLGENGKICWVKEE
The assay can be described thus: GAR transformylase (GARFT) inhibition constant determination. In kind it is biochemical. Particulars: 20° C., pH 7.5, competitive with respect to FDDF.

In assay [3] the test system is CCRF-CEM. The experiment in a line: In vitro growth inhibition (MTT), CCRF-CEM. Particulars: Homo sapiens, title: continuous (72-hour) exposure, incubation 5 days, mean IC50, read-out: IC50 Cell Culture CCRF-CEM. The assay is classed as cell-based.
Description: (§1) All cultures were maintained at 37° C., 5% air-CO2 in a humidified incubator.
In vitro growth inhibition:
(§2) Stock solutions of the inhibitors were prepared in 10 mM sodium bicarbonate in water and stored in 1 ml aliquots at -20° C. for cell culture experiments. Cell-growth inhibition was measured by a modification of the method of Mosmann, J. Immunol.
(§3) Column 1 was filled with the same volume, 135 ml, of fresh medium, without cells, for use as a blank. The plates were then placed in a 37° C., 5% air-CO2 incubator. After 1 to 4 hours, plates were removed from the incubator followed by addition of the test compound at 10×final concentration, 15 ml/well in binary dilutions, to columns 12 to 4. […] Wells containing each concentration of test compound were prepared in quadruplicate on each plate. Fifteen milliliters of media, without test compound, were added to the wells in column 1 of the plates. The cells were then returned to the incubator and remained undisturbed for the full incubation period. On day 3 for L1210 and L1210/CI920 cells or day 5 for CCRF-CEM cells, 50 ml of 0.8 mg/ml MTT (4,5-dimethylthiazol-2-yl)-2,5-diphenyl tetrazolium bromide; Sigma catalog no. […] The concentration of drug required to reduce cell growth by 50% as measured by MTT metabolism was determined by interpolation between the O.D. (minus blank) immediately above and below 50% of control O.D. (minus blank).
The test system of assay [4] is L1210. The assay can be described thus: In vitro growth inhibition (MTT), L1210. In kind it is cell-based. Particulars: Mus musculus, continuous (72-hour) exposure, mean IC50, read-out: IC50 Cell Culture L1210.
Description: as §1
In vitro growth inhibition:
as §2, §3
Assay [5] deals with T2, human folate-binding protein (FBP) (Homo sapiens, UniProt P15328).
T2 construct: membrane associated FBP prepared from cultured KB cells; endogenous in cells; host or cells: KB cells (membrane fraction)
The experiment in a line: FBP competitive binding assay (3H-folic acid, KB cell membranes). The conditions noted are these: for Kd: 25° C., pH 7.4, 3H-folic acid competition. Here is the method:
Determination of Dissociation Constants for Human Folate Binding Protein:
The dissociation constant (Kd) for human folate-binding protein (FBP) was determined in a competitive binding assay using membrane associated FBP prepared from cultured KB cells.
Preparation of KB cell Membrane Fraction:
Adherent KB cells were scraped from flasks, washed once in ice-cold PBS, and centrifuged at 5000×g for 5 minutes at 4° C. Pelleted cells (2×10^8 cells) were resuspended in 10 ml of suspension buffer (KH2 PO4 -KOH pH 7.4:10 mM EDTA:10 mM 2-mercaptoethanol),sonicated briefly to complete cell lysis and centrifuged at 12000×g for 10 minutes at 4° C. The pellet was stripped of endogenous bound folate by resuspension in 20 ml of acidic buffer (50 mM KH2 PO4 -KOH pH 3.5:10 mM EDTA:10 mM 2-mercaptoethanol) and centrifuged as before. The pellet was then resuspended in 20 ml of the suspension buffer at pH 7.4 and centrifuged as before. The pellet was resuspended in 5 ml of suspension buffer at pH 7.4 lacking EDTA. Protein content was quantitated using the Bradford method with BSA as standard. Typical yields for this procedure were 4-5 mg total membrane protein per 2×10^8 cells. This final suspension was used as a source of membrane-associated human FBP.
FBP Competitive Binding Assay:
Inhibitor was allowed to compete against ^3 H-folic acid for binding to FBP. Reactions mixtures contained […] of cell membrane protein containing 3-6 pmoles (3-6 nM) of FBP, 17.25 pmoles ^3 H-folic acid (17.25 nM, 0.5 μCi), various concentrations of competitor, in 1 ml of 50 mM KH2 PO4 -KOH pH 7.4:10 mM 2-mercaptoethanol. Reactions were performed at 25° C. Because of the very slow release of bound ^3 H-folic acid, the competitor was prebound for 30 minutes in the absence of ^3 H-folic acid. ^3 H-Folic acid was then added and the mixtures were allowed to equilibrate for 2.5 hours. […] The amount of bound ^3 H-folic acid was measured by scintillation counting of the nitrocellulose membrane. […]

Assay [6] has as its system mFBP. The conditions noted are these: cited from earlier work.
The conditions of assay [7]: reported in literature (Muggia); cited from earlier work.

T2 sequence (P15328 25-257): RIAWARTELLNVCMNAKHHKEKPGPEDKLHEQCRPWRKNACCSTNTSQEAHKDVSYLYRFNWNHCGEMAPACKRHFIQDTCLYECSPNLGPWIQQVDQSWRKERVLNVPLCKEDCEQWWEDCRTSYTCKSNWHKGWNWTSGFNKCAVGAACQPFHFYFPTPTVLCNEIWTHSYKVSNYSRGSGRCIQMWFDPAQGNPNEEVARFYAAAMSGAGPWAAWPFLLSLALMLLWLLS

Consider `CN(Cc1cnc2nc(N)nc(N)c2n1)c1ccc(C(=O)N[C@@H](CCC(=O)O)C(=O)O)cc1` [Methotrexate], for which the transport into cells entry in assay [1] was “transported via the reduced folate transport system”.
By Ki is commonly meant a dissociation constant, usually derived from enzyme kinetics or from competition with a known ligand. A higher Ki goes with lower affinity. For orientation: IC50 means the concentration that inhibits the measured activity by half. In general, Kd refers to the concentration at which binding is half-saturated. A high value points to lower affinity. `Cc1cc(C(=O)N[C@@H](CCC(=O)O)C(=O)O)sc1CCC1CNc2nc(N)[nH]c(=O)c2C1` (stereo partly drawn) [Compound 1, N-(5-[2-(2-amino-4(3H)-oxo-5,6,7,8-tetrahydropyrido[2,3-d]pyrimidin 6-yl)ethyl]-4-methylthieno-2-yl)-L-glutamic acid] returned a Ki in assay [2] of 1.4 nM. Further, the results for the IC50 in assay [3] and in assay [4] were 6.1 nM and 13.5 nM, respectively. For the same compound, the Kd in assay [5] amounted to 28 nM. For the same compound, in assay [5] (relative to 6R-DDATHF), the “relative folate binding protein Kd, times less potent than 6R-DDATHF” value was “about 1400 times”.
As to `Nc1nc2c(c(=O)[nH]1)CC(CCc1ccc(C(=O)N[C@@H](CCC(=O)O)C(=O)O)cc1)CN2` (stereo partly drawn) [DDATHF, 5,10-dideazatetrahydrofolic acid], in assay [6], the “affinity for the mFBP” value is recorded as “high affinity for the mFBP”. Besides, the IC50 turned out to be 1.5 nM in assay [3] and 17.5 nM in assay [4]. Also, the transport into cells result in assay [1] is “transported into cells via both the reduced folate transport system and the mFBP”. In assay [5], this compound returned a Kd of 0.02 nM. Moreover, the antitumor activity result in assay [7] is “reported to show antitumor activity”.
